This note sets out measurements from ChEMBL document CHEMBL6109080, “Synthesis and mechanistic insights of Coumarinyl-Indolinone hybrids as potent inhibitors of Leishmania major” (Eur J Med Chem, 2025).

Series [1] concerns Leishmania major. The series is described as follows: Antileishmanial activity against […] promastigote form of Leishmania major assessed as inhibition of parasite growth by alamar-blue reduction assay. It is filed as functional, organism-based. For orientation: The colour change of resazurin is a common sign of viable cells or microbes.
Series [2] has as its system Leishmania major. The series is described as follows: Antileishmanial activity against intracellular amastigotes form of Leishmania major assessed as inhibition of parasite growth by alamar-blue reduction assay. The class given is functional, organism-based.
The test system of a further series is Leishmania infantum. The series is described as follows: Antileishmanial activity against Leishmania infantum MHOM/MA(BE)/67 infected in mouse peritoneal macrophage cell incubated for 5 days by giemsa staining based analysis. The class given is functional, organism-based. To be noted: MHOM/MA(BE)/67, Peritoneal macrophage cell, 120 h.
In series [3] the test system is Leishmania major. The series is described as follows: Antileishmanial activity against Leishmania major promastigotes assessed as parasite survival preincubated with 20 uM folinic acid for 1 hrs followed by compound addition and measured after 48 hrs by hemocytometric analysis relative to control. The class given is functional.
Series [4] can be described thus: Cytotoxicity against African green monkey Vero cells assessed as reduction in cell survival incubated for 72 hrs by crystal violet staining based analysis. It is filed as toxicity. The conditions noted are these: chlorocebus sabaeus.
Series [5] deals with Leishmania major. The series is described as follows: Antileishmanial activity against Leishmania major promastigotes assessed as parasite survival measured after 72 hrs by hemocytometric analysis relative to control. It is filed as functional.
The nature of series [6]: Renal toxicity in male mouse assessed as serum urea level at 50 mg/kg, ip measured after 48 hrs (reference value: 36.51 +/- 1.51 mg/dl). It is filed as organism-based. The conditions noted are these: in vivo.
Series [7] can be described thus: Hepatotoxicity in male mouse assessed as effect on ALP level at 200 mg/kg, ip measured after 48 hrs (reference value: 115.44 +/- 8.03 U/L). It is filed as toxicity, organism-based. The conditions noted are these: in vivo.
Series [8] in a line: Hepatotoxicity in male mouse assessed as AST level at 50 mg/kg, ip measured after 48 hrs (reference value: 47.72 +/- 4.77 U/L). The class given is toxicity, organism-based. The conditions noted are these: in vivo.
Series [9] in a line: Hepatotoxicity in male mouse assessed as AST level at 200 mg/kg, ip measured after 48 hrs (reference value: 47.72 +/- 4.77 U/L). It is filed as toxicity, organism-based. The conditions noted are these: in vivo.
For series [10], the system named is Leishmania major. The series is described as follows: Antileishmanial activity against Leishmania major promastigotes assessed as parasite survival preincubated with 100 uM folic acid for 1 hrs followed by compound addition and measured after 48 hrs by hemocytometric analysis relative to control. It is filed as functional.
The subject of series [11] is Leishmania major. The series is described as follows: Antileishmanial activity against Leishmania major promastigotes assessed as parasite survival preincubated with 20 uM folic acid for 1 hrs followed by compound addition and measured after 48 hrs by hemocytometric analysis relative to control. The class given is functional.
Series [12] can be described thus: Hepatotoxicity in male mouse assessed as ALT level at 50 mg/kg, ip measured after 48 hrs (reference value: 28.23 +/- 6.57 U/L). The class given is toxicity, organism-based. The conditions noted are these: in vivo.
In series [13] the test system is Leishmania major. The series is described as follows: Antileishmanial activity against Leishmania major promastigotes assessed as parasite survival preincubated with 100 uM folinic acid for 1 hrs followed by compound addition and measured after 48 hrs by hemocytometric analysis relative to control. The class given is functional.
Series [14] is described as follows: Toxicity in male mouse assessed as CK-MB level at 200 mg/kg, ip measured after 48 hrs (reference value: 41.27 +/- […]). To be noted: in vivo. It is filed as organism-based.
Series [15] can be described thus: Hepatotoxicity in male mouse assessed as ALT level at 200 mg/kg, ip measured after 48 hrs (reference value: 28.23 +/- 6.57 U/L). The class given is toxicity, organism-based. To be noted: in vivo.
The nature of series [16]: Renal toxicity in male mouse assessed as serum creatinine level at 200 mg/kg, ip measured after 48 hrs (reference value: 0.66 +/- 0.02 mg/dl). It is filed as organism-based. The conditions noted are these: in vivo.
Series [17] can be described thus: Toxicity in male mouse assessed as CK-MB level at 50 mg/kg, ip measured after 48 hrs (reference value: 41.27 +/- […]). The conditions noted are these: in vivo. The class given is organism-based.
The nature of series [18]: Renal toxicity in male mouse assessed as serum urea level at 200 mg/kg, ip measured after 48 hrs (reference value: 36.51 +/- 1.51 mg/dl). It is filed as organism-based. To be noted: in vivo.
The nature of series [19]: Selectivity index, ratio of CC50 for cytotoxicity against African green monkey Vero cells assessed as reduction in cell viability to IC50 for antileishmanial activity against Leishmania major amastigotes assessed as inhibition of parasite growth. It is filed as toxicity, cell-based. To be noted: read-out: Ratio CC50/IC50.
Series [20] in a line: Hepatotoxicity in male mouse assessed as ALP level at 50 mg/kg, ip measured after 48 hrs (reference value: 115.44 +/- 8.03 U/L). It is filed as toxicity, organism-based. The conditions noted are these: in vivo.
Series [21] is described as follows: Renal toxicity in male mouse assessed as serum creatinine level at 50 mg/kg, ip measured after 48 hrs (reference value: 0.66 +/- 0.02 mg/dl). To be noted: in vivo. It is filed as organism-based.
Series [22] deals with Leishmania major. The series is described as follows: Antileishmanial activity against Leishmania major promastigotes assessed as parasite survival at 100 uM measured after 72 hrs by hemocytometric analysis relative to control.

SMILES strings stand for the structures.

On to `CC(C)CN1C(=O)C(n2nc(-c3c(O)c4ccccc4oc3=O)cc2-c2ccc(Br)cc2)c2cc(Br)ccc21` (stereo unspecified), for which the values for the IC50 in the series on Leishmania major [1] and in the series on Leishmania major [2] were 6.93 µM and 8.22 µM, respectively.

In the case of `CCCN1C(=O)C(n2nc(-c3c(O)c4ccccc4oc3=O)cc2-c2ccc(Br)cc2)c2cc(Cl)ccc21` (stereo unspecified), the IC50 (as a rule, the concentration needed to halve the response being measured) in the series on Leishmania major [1] is 4.73 µM; in the series with Leishmania major [2], 6.82 µM.

With `CC(C)CN1C(=O)C(n2nc(-c3c(O)c4ccccc4oc3=O)cc2-c2ccc(F)cc2)c2cc(Cl)ccc21` (stereo unspecified), the IC50 came out at 5.71 µM in the series on Leishmania major [1] and 7.28 µM in the series with Leishmania major [2].

Regarding `CC(C)CN1C(=O)C(n2nc(-c3c(O)c4ccccc4oc3=O)cc2-c2ccc(F)cc2)c2cc(Br)ccc21` (stereo unspecified), the 50% inhibitory concentration (IC50) in the series on Leishmania major [1] was found to be 6.22 µM; in the series with Leishmania major [2] it was 6.87 µM.

The compound `O=C(Nc1cc(-c2ccccc2F)n[nH]1)Oc1ccccc1` yielded an IC50 with Leishmania infantum of 20 µM.

For `O=C1Nc2ccc([N+](=O)[O-])cc2C1n1nc(-c2c(O)c3ccccc3oc2=O)cc1-c1ccc(Cl)cc1` (stereo unspecified), the Survival in the series with Leishmania major [3] is 78%; in the series with Leishmania major [5] it was 21%; in the series with Leishmania major [10], 73%; with Leishmania major [11], 68%; with Leishmania major [13] it was 85%. In addition, in series [4], the CC50 (commonly the concentration at which the toxic effect on the cells reaches its halfway point) at 72 h is 60.7 µM. For the same compound, the Activity came to 34.17 mg/dL in series [6]; 113.63 U/L in [7]; 45.98 U/L in series [8]; 48.89 U/L in series [9]; 29.39 U/L in [12]; 44.71 U/L in [14]. Moreover, the Activity was determined as 32.59 U/L in series [15]; 0.61 mg/dL in series [16]; 44.71 U/L in [17]; 38.32 mg/dL in series [18]; 106.35 U/L in series [20]; 0.62 mg/dL in [21]. In addition, the 50% inhibitory concentration (IC50) was determined as 1.43 µM with Leishmania major [1] and 1.44 µM in the series with Leishmania major [2]. Besides, the selectivity ratio in [19] was 42.3.

For `O=C1Nc2ccc([N+](=O)[O-])cc2C1n1nc(-c2c(O)c3ccccc3oc2=O)cc1-c1ccc(Br)cc1` (stereo unspecified), the IC50 in the series with Leishmania major [1] came out at 2.47 µM; with Leishmania major [2], 3.88 µM.

Consider `CN1C(=O)C(n2nc(-c3c(O)c4ccccc4oc3=O)cc2-c2ccc(F)cc2)c2cc(Cl)ccc21` (stereo unspecified), for which the IC50 with Leishmania major [1] was 4.05 µM; in the series with Leishmania major [2] it was 6.82 µM.

Regarding `O=C1C(n2nc(-c3c(O)c4ccccc4oc3=O)cc2-c2ccc(Cl)cc2)c2ccccc2N1CCc1ccccc1` (stereo unspecified), the IC50 in the series with Leishmania major [1] was determined as 5.92 µM; with Leishmania major [2], 8.47 µM.

Consider `O=C1C(n2nc(-c3c(O)c4ccccc4oc3=O)cc2-c2ccc(Br)cc2)c2ccccc2N1CCc1ccccc1` (stereo unspecified), for which the figures for the IC50 in the series on Leishmania major [1] and in the series on Leishmania major [2] were 7.21 µM and 9.44 µM, respectively.

`CCCN1C(=O)C(n2nc(-c3c(O)c4ccccc4oc3=O)cc2-c2ccc(F)cc2)c2cc(Cl)ccc21` (stereo unspecified): the IC50 in the series on Leishmania major [1] is 4.64 µM; with Leishmania major [2] it was 5.82 µM.

Turning to `CC(C)CN1C(=O)C(n2nc(-c3c(O)c4ccccc4oc3=O)cc2-c2ccc(Br)cc2)c2cc(Cl)ccc21` (stereo unspecified), the IC50 in the series with Leishmania major [1] stood at 5.07 µM; in the series with Leishmania major [2], 6.64 µM.

In the case of `CCCN1C(=O)C(n2nc(-c3c(O)c4ccccc4oc3=O)cc2-c2ccc(Cl)cc2)c2cc(Cl)ccc21` (stereo unspecified), the IC50 is 5.6 µM in the series on Leishmania major [1] and 7.29 µM in the series on Leishmania major [2].

As for `COc1ccc(-c2cc(NC(=O)N3CCC(Cc4ccccc4)CC3)[nH]n2)cc1`, inhibition in the series with Leishmania infantum was half-maximal at 19 µM (IC50).

As to `CC(C)CN1C(=O)C(n2nc(-c3c(O)c4ccccc4oc3=O)cc2-c2ccc(Cl)cc2)c2cc(Cl)ccc21` (stereo unspecified), the concentration for half-maximal inhibition (IC50) with Leishmania major [1] stood at 6.59 µM; with Leishmania major [2] it was 8.25 µM.

Take `CC(C)CN1C(=O)C(n2nc(-c3c(O)c4ccccc4oc3=O)cc2-c2ccc(Cl)cc2)c2cc(Br)ccc21` (stereo unspecified): the concentration for half-maximal inhibition (IC50) stood at 5.99 µM in the series on Leishmania major [1] and 7.54 µM in the series on Leishmania major [2].

In the case of `COc1cc(Cc2cnc(N)nc2N)cc(OC)c1OC` [TRIMETHOPRIM], in the series with Leishmania major [10], the Survival is listed as 99%. Moreover, the survival at 100 µM in the series with Leishmania major [22] was determined as 72%.
